The source of these data is US10913727B2, “Modulators of the integrated stress pathway” (Calico Life Sciences LLC, priority 2016, dated 2021).

Structures are written as SMILES. Bounds are passed on as bounds.

The subject of this assay is HEK293T cells carrying the ATF4 luciferase reporter. The assay is described as follows: ATF4-Luc assay, in vitro model of Vanishing Cell White Matter Disease (VWMD). It counts as cell-based. The following applies: Homo sapiens, HEK-293T, 1 μg/mL tunicamycin, 7 hours, One Glo luminescence. The procedure, abridged:
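Compound at 200 nM and tunicamycin at 1 μg/mL were given together for 7 h to HEK293T cells stably transduced with an ATF4 5′-UTR-driven firefly luciferase reporter. Read-out by luminescence, reported as EC50.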
A word on the EC50: it is the midpoint of the concentration-response curve. With `O=C(COc1ccc(Cl)cc1)NC12CC(Nc3noc(-c4ccc(Cl)cc4)n3)(C1)C2` [Compound 287, 2-(4-chlorophenoxy)-N-(3-{[5-(4-chlorophenyl)-1,2,4-oxadiazol-3-yl]amino}bicyclo[1.1.1]pentan-1-yl)acetamide], the EC50 was in the range of 50 to 250 nM.
On to `O=C(COc1ccc(Cl)c(F)c1)NC12CC(NC(=O)c3ccc[n+]([O-])c3)(C1)C2` [Compound 402, N-{3-[2-(4-chloro-3-fluorophenoxy)acetamido]bicyclo[1.1.1]pentan-1-yl}-1-oxo-1λ^5-pyridine-3-carboxamide], for which the concentration giving a half-maximal response (EC50) is more than 2000 nM.
Consider `O=C(COc1ccc(Cl)c(F)c1)NC12CC(NC(=O)c3cc4ccccc4cn3)(C1)C2` [Compound 660, N-{3-[2-(4-chloro-3-fluorophenoxy)acetamido]bicyclo[1.1.1]pentan-1-yl}isoquinoline-3-carboxamide], for which the concentration giving a half-maximal response (EC50) was 250 to 1000 nM.
In the case of `O=C(COc1ccc(Cl)c(Cl)c1)NC12CC(NC(=O)c3cc(CCO)ccn3)(C1)C2` [Compound 281, N-{3-[2-(3,4-dichlorophenoxy)acetamido]bicyclo[1.1.1]pentan-1-yl}-4-(2-hydroxyethyl)pyridine-2-carboxamide], the EC50 lay in the range of 50 to 250 nM.
As to `CC(C)c1nc(C(=O)NC23CC(NC(=O)COc4ccc(Cl)c(F)c4)(C2)C3)co1` [Compound 245, N-{3-[2-(4-chloro-3-fluorophenoxy)acetamido]bicyclo[1.1.1]pentan-1-yl}-2-(propan-2-yl)-1,3-oxazole-4-carboxamide], the half-maximal effective concentration (EC50) is 250 to 1000 nM.
As for `Cc1ccnc(C(=O)NC23CC(NC(=O)COc4ccc(Cl)c(F)c4)(C2)C3)c1` [Compound 525, N-{3-[2-(4-chloro-3-fluorophenoxy)acetamido]bicyclo[1.1.1]pentan-1-yl}-4-methylpyridine-2-carboxamide], the EC50 is 250 to 1000 nM.
Regarding `O=C(COc1ccc(F)c(F)c1)NC12CC(Nc3cncc(-c4cccnc4)n3)(C1)C2` [Compound 743, 2-(3,4-difluorophenoxy)-N-(3-{[6-(pyridin-3-yl)pyrazin-2-yl]amino}bicyclo[1.1.1]pentan-1-yl)acetamide], the EC50 is more than 2000 nM.
`O=C(COc1ccc(Cl)c(F)c1)NC12CCC(NC(=O)c3cscn3)(CC1)CC2O` (centres unmarked) [Compound 592, N-{4-[2-(4-chloro-3-fluorophenoxy)acetamido]-3-hydroxybicyclo[2.2.2]octan-1-yl}-1,3-thiazole-4-carboxamide]: the concentration for a half-maximal effect (EC50) was in the range of 50 to 250 nM.
Next, `O=C(COc1ccc2c(c1)OC(F)(F)O2)NC12CC(NC(=O)c3cc(CO)ccn3)(C1)C2` [Compound 401, N-(3-{2-[(2,2-difluoro-2H-1,3-benzodioxol-5-yl)oxy]acetamido}bicyclo[1.1.1]pentan-1-yl)-4-(hydroxymethyl)pyridine-2-carboxamide]: 250 to 1000 nM; `Cc1ccc(F)c(C(=O)NC23CC(NC(=O)COc4ccc(Cl)c(F)c4)(C2)C3)n1` [Compound 832, N-{3-[2-(4-chloro-3-fluorophenoxy)acetamido]bicyclo[1.1.1]pentan-1-yl}-3-fluoro-6-methylpyridine-2-carboxamide]: 50 to 250 nM.
As to `O=C(COc1ccc(Cl)c(F)c1)NC12CCC(NC(=O)c3cnn4ccccc34)(CC1)CC2O` (centres unmarked) [Compound 596, N-{4-[2-(4-chloro-3-fluorophenoxy)acetamido]-3-hydroxybicyclo[2.2.2]octan-1-yl}pyrazolo[1,5-a]pyridine-3-carboxamide], the EC50 fell in the range of 250 to 1000 nM.
Turning to `O=C(COc1ccc(Cl)c(F)c1)NC12CCC(NC(=O)c3cccc[n+]3[O-])(CC1)CC2O` (centres unmarked) [Compound 944, N-{4-[2-(4-chloro-3-fluorophenoxy)acetamido]-3-hydroxybicyclo[2.2.2]octan-1-yl}-1-oxo-1λ^5-pyridine-2-carboxamide], the EC50 was more than 2000 nM.
The result for `Cc1ocnc1C(=O)NC12CC(NC(=O)COc3ccc(Cl)c(F)c3)(C1)C2` [Compound 909, N-{3-[2-(4-chloro-3-fluorophenoxy)acetamido]bicyclo[1.1.1]pentan-1-yl}-5-methyl-1,3-oxazole-4-carboxamide] reads more than 2000 nM; that for `COc1ccnc(C(=O)NC23CCC(NC(=O)COc4ccc(Cl)c(F)c4)(CC2)C(O)C3)c1` (centres unmarked) [Compound 924, N-{4-[2-(4-chloro-3-fluorophenoxy)acetamido]-3-hydroxybicyclo[2.2.2]octan-1-yl}-4-methoxypyridine-2-carboxamide], more than 2000 nM; that for `Cc1nc(C(=O)NC23CCC(NC(=O)COc4ccc(Cl)c(Cl)c4)(CC2)[C@@H](O)C3)cs1` [Compound 701, N-{(3S)-4-[2-(3,4-dichlorophenoxy)acetamido]-3-hydroxybicyclo[2.2.2]octan-1-yl}-2-methyl-1,3-thiazole-4-carboxamide], 50 to 250 nM.
The result for `O=C(COc1ccc(Cl)c(F)c1)NC12CC(NC(=O)c3ccc(C(F)F)cc3)(C1)C2` [Compound 191, N-{3-[2-(4-chloro-3-fluorophenoxy)acetamido]bicyclo[1.1.1]pentan-1-yl}-4-(difluoromethyl)benzamide] reads 50 to 250 nM; that for `O=C(COc1ccc(Cl)c(F)c1)NC12CCC(NC(=O)c3cnc(C(F)F)cn3)(CC1)[C@@H](O)C2` (single isomer, unassigned) [Compound 236], less than 50 nM; that for `COCc1cccc(C(=O)NC23CC(NC(=O)COc4ccc(Cl)c(F)c4)(C2)C3)n1` [Compound 174, N-{3-[2-(4-chloro-3-fluorophenoxy)acetamido]bicyclo[1.1.1]pentan-1-yl}-6-(methoxymethyl)pyridine-2-carboxamide], 250 to 1000 nM.
`O=C(COc1ccc(Cl)c(Cl)c1)NC12CC(NC(=O)c3ccc(CO)nc3)(C1)C2` [Compound 719, N-{3-[2-(3,4-dichlorophenoxy)acetamido]bicyclo[1.1.1]pentan-1-yl}-6-(hydroxymethyl)pyridine-3-carboxamide]: the EC50 lay within 1000 to 2000 nM.
`O=C(COc1ccc(Cl)c(F)c1)NC12CC(NC(=O)c3cnc(C(F)(F)F)s3)(C1)C2` [Compound 563, N-{3-[2-(4-chloro-3-fluorophenoxy)acetamido]bicyclo[1.1.1]pentan-1-yl}-2-(trifluoromethyl)-1,3-thiazole-5-carboxamide]: the EC50 was less than 50 nM.
As for `O=C(COc1ccc(Cl)c(F)c1)NC12CC(NC(=O)c3ccc4c(c3)OCCO4)(C1)C2` [Compound 387, N-{3-[2-(4-chloro-3-fluorophenoxy)acetamido]bicyclo[1.1.1]pentan-1-yl}-2,3-dihydro-1,4-benzodioxine-6-carboxamide], the concentration giving a half-maximal response (EC50) lay in the range of 50 to 250 nM.
The result for `Cc1cc(C(=O)NC23CCC(NC(=O)COc4ccc5c(c4)OC(F)(F)O5)(CC2)[C@@H](O)C3)on1` [Compound 636, N-[(3S)-4-{2-[(2,2-difluoro-2H-1,3-benzodioxol-5-yl)oxy]acetamido}-3-hydroxybicyclo[2.2.2]octan-1-yl]-3-methyl-1,2-oxazole-5-carboxamide] reads 250 to 1000 nM; that for `Cn1nc(C(F)F)cc1C(=O)NC12CCC(NC(=O)COc3ccc(Cl)c(F)c3)(CC1)C(O)C2` (centres unmarked) [Compound 437, N-{4-[2-(4-chloro-3-fluorophenoxy)acetamido]-3-hydroxybicyclo[2.2.2]octan-1-yl}-3-(difluoromethyl)-1-methyl-1H-pyrazole-5-carboxamide], less than 50 nM.
